Measurements from patent publication US11066414B2, “Cot modulators and methods of use thereof” (Gilead Sciences, Inc., priority 2015, dated 2021).
Like-named read-outs stand apart in the source and are kept apart here.

How the values were obtained:
[1] = system: TNFα; experiment: Cot Monocyte TNFα Cell Based Assay
[2] = molecular target: Human Cot (Homo sapiens (Human), UniProt P41279); experiment: High Throughput Cot Biochemical Assay
[3] = Homo sapiens, Monocyte, read-out: EC50 TNF, LPS-stimulated human monocytes, TNFα
[4] = IC50 HTRF, Cot HTRF (TR-FRET) biochemical assay
[5] = read-out: EC50 TNF, LPS-stimulated human monocytes, TNFα
[6] = read-out: IC50 HTRF, Cot HTRF (TR-FRET) biochemical assay

Chain of Human Cot (P41279 30-397): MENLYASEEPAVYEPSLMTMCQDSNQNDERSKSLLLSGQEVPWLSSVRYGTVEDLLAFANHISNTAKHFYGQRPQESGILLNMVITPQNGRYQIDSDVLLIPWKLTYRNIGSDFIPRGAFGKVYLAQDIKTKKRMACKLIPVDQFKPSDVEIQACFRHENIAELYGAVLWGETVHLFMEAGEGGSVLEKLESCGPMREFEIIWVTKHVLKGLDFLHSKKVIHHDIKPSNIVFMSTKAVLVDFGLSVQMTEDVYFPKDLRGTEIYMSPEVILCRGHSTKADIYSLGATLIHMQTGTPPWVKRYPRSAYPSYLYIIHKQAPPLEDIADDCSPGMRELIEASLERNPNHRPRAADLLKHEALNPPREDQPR

Row | SMILES | EC50 [1, 3] | IC50 [2, 4] | other results
1 | Cc1nc(F)ccc1[C@H](Nc1cc(Cl)c2ncc(C#N)c(NCC(C)(C)c3ccccc3)c2c1)c1cn(C2(C(F)(F)F)CC2)nn1 [Example 612, (S)-8-chloro-6-(((6-fluoro-2-methylpyridin-3-yl)(1-(1-(trifluoromethyl)cyclopropyl)-1H-1,2,3-triazol-4-yl)methyl)amino)-4-((2-methyl-2-phenylpropyl)amino)quinoline-3-carbonitrile] | 171 nM | 11 nM | 
2 | [2H][C@](Nc1cc(Cl)c2ncc(C#N)c(NC3CCOCC3(C)C)c2c1)(c1ccc(F)nc1)c1cn(C2CC2)nn1 (stereo partly drawn) [Example 92, 8-chloro-6-(((S)-(1-cyclopropyl-1H-1,2,3-triazol-4-yl)(6-fluoropyridin-3-yl)methyl-d)amino)-4-((3,3-dimethyltetrahydro-2H-pyran-4-yl)amino)quinoline-3-carbonitrile] | 65 nM | 6 nM | 
3 | COc1nccc2c([C@H](Nc3cc(Cl)c4ncc(C#N)c(NCC(C)(C)C)c4c3)c3cn(C45CC(C4)C5)nn3)cccc12 [Example 911, (S)-6-(((1-(bicyclo[1.1.1]pentan-1-yl)-1H-1,2,3-triazol-4-yl)(1-methoxylsoquinolin-5-yl)methyl)amino)-8-chloro-4-(neopentylamino)quinoline-3-carbonitrile] |  |  | EC50 ([1]; read-out: EC50 TNF, LPS-stimulated human monocytes, TNFα TR-FRET): 85 nM; IC50 ([2]; read-out: IC50 HTRF, Cot HTRF (TR-FRET KinEASE) biochemical assay, 400 μM ATP): 7 nM
4 | CC(C)(C)CNc1c(C#N)cnc2c(C#N)cc(N[C@H](c3cn(C4(C(F)(F)F)CC4)nn3)c3cccc4c(=O)n(CC(F)(F)F)ccc34)cc12 [Example 875, (S)-4-(neopentylamino)-6-(((1-oxo-2-(2,2,2-trifluoroethyl)-1,2-dihydroisoquinolin-5-yl)(1-(1-(trifluoromethyl)cyclopropyl)-1H-1,2,3-triazol-4-yl)methyl)amino)quinoline-3,8-dicarbonitrile] |  |  | EC50 ([1]; Homo sapiens, Monocyte, read-out: EC50 TNF, LPS-stimulated human monocytes, TNFα TR-FRET): 166 nM; IC50 ([2]; IC50 HTRF, Cot HTRF (TR-FRET KinEASE) biochemical assay, 400 μM ATP): 2 nM
5 | [2H][C@](Nc1cc(Cl)c2ncc(C#N)c(N[C@H](CC#N)c3ccccc3)c2c1)(c1ccc(F)nc1)c1cn(C2CC2)nn1 [Example 129, 8-chloro-4-(((R)-2-cyano-1-phenylethyl)amino)-6-(((S)-(1-cyclopropyl-1H-1,2,3-triazol-4-yl)(6-fluoropyridin-3-yl)methyl-d)amino)quinoline-3-carbonitrile] | 81 nM | 2 nM | 
6 | Cc1nc(F)ccc1[C@H](Nc1cc(Cl)c2ncc(C#N)c(NCC(C)(C)C)c2c1)c1cn(C(C)(C)C(F)F)nn1 [Example 545, (S)-8-chloro-6-(((1-(1,1-difluoro-2-methylpropan-2-yl)-1H-1,2,3-triazol-4-yl)(6-fluoro-2-methylpyridin-3-yl)methyl)-amino)-4-(neopentylamino)quinoline-3-carbonitrile] | 108 nM | 4 nM | 
7 | Cc1nc(F)ccc1[C@H](Nc1cc(C#N)c2ncc(C#N)c(N[C@@H]3CCOCC3(C)C)c2c1)c1cn(C2(C3CC3)CC2)nn1 [Example 675] |  |  | EC50 [1, 5]: 7 nM; IC50 [2, 6]: 1 nM
8 | [2H][C@](Nc1cc(Cl)c2ncc(C#N)c(Nc3c(F)ccc(Cl)c3F)c2c1)(c1ccc(F)nc1)c1cn(C2CC2)nn1 [Example 127, (S)-8-chloro-4-((3-chloro-2,6-difluorophenyl)amino)-6-(((1-cyclopropyl-1H-1,2,3-triazol-4-yl)(6-fluoropyridin-3-yl)methyl-d)amino)quinoline-3-carbonitrile] | 194 nM | 16 nM | 
9 | CC(C)(C)CNc1c(C#N)cnc2c(C#N)cc(N[C@H](c3cn(C4(C(N)=O)CC4)nn3)c3cccc4cnccc34)cc12 [Example 586, (S)-1-(4-(((3,8-dicyano-4-(neopentylamino)-quinolin-6-yl)atnino)(isoquinolin-5-yl)methyl)-1H-1,2,3-triazol-yl)cyclopropane-1-carboxamide] |  |  | EC50 [1, 5]: 1000 nM; IC50 [2, 6]: 2 nM
10 | CC(C)(C)CNc1c(C#N)cnc2c(Cl)cc(N[C@H](c3cn(C4(C(N)=O)CC4)nn3)c3cccc4ncccc34)cc12 [Example 565, (S)-1-(4-(((8-chloro-3-cyano-4-(neopentyl-amino)quinolin-6-yl)amino)(quinolin-5-yl)methyl)-1H-1,2,3-triazol-1-yl)cyclo-propane-1-carboxamide] | 306 nM | 2 nM | 
